Laboratory results reported in patent publication US7001588B2, “Expanded porphyrin compositions for tumor inhibition” (Cylene Pharmaceuticals, priority 2002, dated 2006).
“Also recorded” adds a separate entry of the source. Like-named read-outs stand apart in the source and are kept apart here.

Experiments:
[1] = test system: HeLa S3 cells; assay: In vitro cytotoxicity assay (CellTiter 96 MTS); type: cell-based, human
Protocol: HeLa S3 (human cervical carcinoma metastasis were obtained from ATCC, and were cultured in Dulbecco's modification of Eagle's Medium (DMEM, Cellgro) with 10% FBS, 50 U/ml penicillin G sodium, 50 U/ml streptomycin sulfate. Adherent cells were grown to 80% confluency and passaged at 1:10 in the following fashion. The medium was aspirated by vacuum, and the cells were washed with 1×PBS (Cellgro). Sufficient trypsin (Gibco/BRL) was added to cover the cells, and cells were incubated at room temperature for approximately 3 min, or until cells detached from the flask with firm tapping. The trypsin was neutralized with an equal volume of culture medium, and the cells were counted using a haemocytometer and passaged at 1:10 into fresh medium. […]
In vitro cytotoxicity assays were performed using the CellTiter 96 Non-Radioactive Cell Proliferation Assay (Promega Corp., Madison, Wis.). […] Absorbance was measured using a Wallac Victor Multilabel Counter (Perkin Elmer, Shelton, Conn.) at 490 nm. Data were expressed as the percentage of survival of control calculated from the absorbance corrected for background absorbance. The surviving fraction of cells was determined by dividing the mean absorbance values of the test agents by the mean absorbance values of untreated control.

[2] = test system: Duplex DNA; assay: Polymerase stop assay, pausing at primer position (duplex product); type: biochemical; details: for Duplex DNA (ED30 μM): normalized percentage of duplex product; for Duplex DNA ED30, fold in parentheses (relative to c-MYC ED50): value in parentheses (×)
Protocol: These were synthesized and purified as described above. Labeled primer (100 nM) and template DNA (100 nM) were annealed in an annealing buffer (50 mM Tris-HCl, pH 7.5, 10 mM NaCl) by heating to 95° C. and then slowly cooled to room temperature. […] KCl and NaCl (10 mM each) were added to the reaction. Taq DNA polymerase was added, and the mixture was incubated at 55° C. for 20 min.
Pausing at the G-quadruplex forming site is quantified as the normalized percentage of stop product with respect to the total intensity per lane. […] This is quantified as the normalized percentage of duplex product with respect to the total intensity per lane.

[3] = molecular target: c-MYC G-quadruplex (PU27 c-MYC sequence); assay: G-quadruplex polymerase stop assay, PU27 c-MYC template; type: biochemical; details: for EC50: Taq polymerase stop product, PU27 c-MYC template, 55° C., read-out: c-MYC (ED50 μM); for fold selectivity/preference for the c-MYC G-quadruplex over the human telomeric G-quadruplex: from ED50 values
[4] = molecular target: human telomeric G-quadruplex; assay: G-quadruplex polymerase stop assay, human telomeric template; type: biochemical; details: for EC50: Taq polymerase stop product, four TTAGGG repeats template, 37° C., read-out: Huam Telomeric (ED50 μM)
[5] = test system: c-MYC G-quadruplex; assay: Photomediated strand cleavage reaction
[6] = test system: c-MYC expression in HeLa S3 cells; assay: Effect on c-MYC transcription (real-time PCR, normalized to β-actin); type: cell-based, human; details: at high (100 μM) concentration, 24 h
Protocol: In this example, the various porphyrins were tested for their effect on c-MYC RNA levels normalized to the levels of β-actin RNA production.
TMPyP4, at a concentration of 100 μM, was also included for comparison.
Cell cultures were permitted to reach ˜50% confluency before test compound was added for 24 hour treatments. This was adjusted as necessary depending on treatment times. Test compounds were diluted in media in which the cells were normally cultured. Cells were washed once with PBS, and new media containing compound was added directly to the flask. Cells were harvested concurrently with untreated cells. Timepoints were collected in duplicate for each treatment.
RNA was extracted as follows: Cell pellets were lysed in Buffer RA I supplemented with 1% β-mercaptoethanol and RNA extracted according to the protocol included with the kit, and eluted in 50 μl of nuclease-free water included in the kit. RNA was quantitated by ultraviolet spectrophotometry, resuspended to a convenient concentration for downstream applications, and stored at −80° C. […]
Real-time PCR was performed using the QuantiTect SYBR Green PCR Kit (Qiagen). […]
The reactions were incubated in a DNA Engine Opticon Continuous Fluorescence Detector (MJ Research) as follows: 95° C., 14 min; (95° C., 1 min; 59° C., 1 min, 10 sec; 72° C., 1 min, 30 sec; plate read for fluorescence) 40×; 72° C., 10 min. […]

## C[n+]1cccc(-c2c3nc(c(-c4ccc[n+](C)c4)c4ccc([nH]4)c(-c4ccc[n+](C)c4)c4nc(c(-c5ccc[n+](C)c5)c5ccc2[nH]5)C=C4)C=C3)c1 [TMPyP3]
[1]
  EC50: 43.4 µM
[2]
  Duplex DNA (ED30 μM): >50 (>50) μM
  Duplex DNA ED30, fold in parentheses (relative to c-MYC ED50): >50 (>50)
[3]
  EC50: 2.34 µM
  fold selectivity/preference for the c-MYC G-quadruplex over the human telomeric G-quadruplex: 8 fold
[4]
  EC50: 19.5 µM

## 5,10,15,20-tetra(N-methyl-3-pyridyl)-26,28-diselena sapphyrin chloride [Se2SAP]
[2]
  duplex (or single strand) DNA binding, in words: little or no duplex binding activity; also recorded: absence of duplex binding
[3]
  EC50: 0.025 µM
  fold selectivity/preference for the c-MYC G-quadruplex over the human telomeric G-quadruplex: greater than 1,000 fold
[3]; template containing c-MYC sequence, FIG. 5A
  concentration giving complete arrest of the polymerase synthesis at the G-quadruplex forming site: 0.04 µM
[4]
  interaction with the human telomeric G-quadruplex structure (ED50 can't be calculated): only very little interaction
[4]; at 20 μM, template containing human telomeric sequence, FIG. 5B
  pausing in the polymerase synthesis at the G-quadruplex forming site: little pausing
[5]; compared to TMPyP4, FIG. 7
  photoinduced cleavage of c-MYC G-quadruplex / photoactivity: minimal cleavage; also recorded: not photoactive
[6]
  inhibitory effect on c-MYC expression: comparable to TMPyP4; also recorded: same as that of TMPyP4

## C[n+]1ccc(-c2c3nc(c(-c4cc[n+](C)cc4)c4ccc([nH]4)c(-c4cc[n+](C)cc4)c4ccc([nH]4)c(-c4cc[n+](C)cc4)c4nc2C=C4)C=C3)cc1 [TMPyP4]
[1]; HeLa S3, 4 days, MTS, FIG. 8, read-out: cytotoxicity ED50
  EC50: 25.6 µM
[2]
  duplex (or single strand) DNA binding, in words: little or no duplex binding activity
  Duplex DNA (ED30 μM): >50 (>50) μM
  Duplex DNA ED30, fold in parentheses (relative to c-MYC ED50): >50 (>50)
[3]
  EC50: 0.99 µM
  fold selectivity/preference for the c-MYC G-quadruplex over the human telomeric G-quadruplex: 19 fold
[4]
  EC50: 18.9 µM
[5]; at 1 μM, FIG. 6 lane 2
  photoinduced cleavage of c-MYC G-quadruplex: considerable cleavage pattern
